Laboratory results published in patent publication US11399542B2, “Pesticidally active heterocyclic derivatives with sulfur containing substituents” (SYNGENTA PARTICIPATIONS AG, priority 2017, dated 2022).

Tests used:
[1] = tested on: Spodoptera littoralis (Egyptian Cotton Leaf Worm); assay: Example B1: Activity against Spodoptera littoralis, sprayed cotton leaf discs; type: in vivo; details: foliar, 72 h, application rate 200 ppm, L1 larvae on cotton leaf discs, 3 days after infestation, read-out: control (at least one of mortality, anti-feedant effect, growth inhibition)
Description: Cotton leaf discs were placed onto agar in 24-well microtiter plates and sprayed with aqueous test solutions prepared from 10′000 ppm DMSO stock solutions. After drying the leaf discs were infested with five L1 larvae. The samples were assessed for mortality, anti-feeding effect, and growth inhibition in comparison to untreated samples 3 days after infestation. Control of Spodoptera littoralis by a test sample is given when at least one of the categories mortality, anti-feedant effect, and growth inhibition is higher than the untreated sample.

[2] = tested on: Diabrotica balteata (Corn Root Worm); assay: Example B4: Activity against Diabrotica balteata, sprayed maize sprouts; type: in vivo; details: 96 h, application rate 200 ppm, L2 larvae on maize sprouts, 4 days after infestation, read-out: effect in at least one of the two categories (mortality or growth inhibition)
Description: Maize sprouts placed onto an agar layer in 24-well microtiter plates were treated with aqueous test solutions prepared from 10′000 ppm DMSO stock solutions by spraying. After drying, the plates were infested with L2 larvae (6 to 10 per well). The samples were assessed for mortality and growth inhibition in comparison to untreated samples 4 days after infestation.

[3] = tested on: Myzus persicae (Green Peach Aphid); assay: Example B5: Activity against Myzus persicae, sprayed sunflower leaf discs; type: in vivo; details: foliar, 144 h, application rate 200 ppm, mixed-age aphids on sunflower leaf discs, 6 days after infestation
Description: (§1) Sunflower leaf discs were placed on agar in a 24-well microtiter plate and sprayed with aqueous test solutions prepared from 10′000 ppm DMSO stock solutions. After drying, the leaf discs were infested with an aphid population of mixed ages. The samples were assessed for mortality 6 days after infestation.

[4] = tested on: Myzus persicae (Green Peach Aphid); assay: Example B6: Activity against Myzus persicae, systemic via roots of pea seedlings; type: in vivo; details: 144 h, test rate 24 ppm, pea seedling roots in test solution, 6 days
Description: Roots of pea seedlings infested with an aphid population of mixed ages were placed directly in the aqueous test solutions prepared from 10′000 DMSO stock solutions. The samples were assessed for mortality 6 days after placing seedlings in test solutions.

[5] = tested on: Bemisia tabaci (Cotton White Fly); assay: Example B7: Activity against Bemisia tabaci, sprayed cotton leaf discs; type: in vivo; details: foliar, 144 h, application rate 200 ppm, adult white flies on cotton leaf discs, 6 days after incubation
Description: Cotton leaf discs were placed on agar in 24-well microtiter plates and sprayed with aqueous test solutions prepared from 10′000 ppm DMSO stock solutions. After drying the leaf discs were infested with adult white flies. The samples were checked for mortality 6 days after incubation.

[6] = tested on: Frankliniella occidentalis (Western Flower Thrips); assay: Example B8: Activity against Frankliniella occidentalis, sprayed sunflower leaf discs; type: in vivo; details: foliar, 168 h, application rate 200 ppm, mixed ages on sunflower leaf discs, 7 days after infestation
Description: as §1, with “in” for “in a”, “plates” for “plate”, “[…]” for “10′000 ppm”, “drying” for “drying,”, “a Frankliniella” for “an aphid”, “7” for “6”

[7] = tested on: Plutella xylostella (Diamond Back Moth); assay: Example B12: Activity against Plutella xylostella, artificial diet, eggs; type: in vivo; details: 192 h, application rate 200 ppm, eggs on artificial diet, 8 days after infestation, read-out: effect in at least one of the two categories (mortality or growth inhibition)
Description: 24-well microtiter plates with artificial diet were treated with aqueous test solutions prepared from 10′000 ppm DMSO stock solutions by pipetting. After drying, Plutella eggs were pipetted through a plastic stencil onto a gel blotting paper and the plate was closed with it. The samples were assessed for mortality and growth inhibition in comparison to untreated samples 8 days after infestation.

[8] = tested on: Plutella xylostella (Diamond Back Moth); assay: Example B3: Activity against Plutella xylostella, artificial diet, L2 larvae; type: in vivo; details: 120 h, application rate 200 ppm, L2 larvae on artificial diet, 5 days after infestation, read-out: effect in at least one of the two categories (mortality or growth inhibition)
Description: 24-well microtiter plates with artificial diet were treated with aqueous test solutions prepared from 10′000 ppm DMSO stock solutions by pipetting. After drying, the plates were infested with L2 larvae (10 to 15 per well). The samples were assessed for mortality and growth inhibition in comparison to untreated samples 5 days after infestation.

[9] = tested on: Euschistus heros (Neotropical Brown Stink Bug); assay: Example B9: Activity against Euschistus heros, sprayed soybean leaf; type: in vivo; details: 120 h, application rate 200 ppm, N2 nymphs on soybean leaf, 5 days after infestation, read-out: effect in at least one of the two categories (mortality or growth inhibition)
Description: Soybean leaf on agar in 24-well microtiter plates were sprayed with aqueous test solutions prepared from 10′000 ppm DMSO stock solutions. After drying the leaf were infested with N2 nymphs. The samples were assessed for mortality and growth inhibition in comparison to untreated samples 5 days after infestation.

[10] = tested on: Spodoptera littoralis (Egyptian Cotton Leaf Worm); assay: Example B2: Activity against Spodoptera littoralis, systemic via lettuce roots in agar; type: in vivo; details: 144 h, test rate 12.5 ppm, lettuce root uptake, 6 days after infestation, read-out: effect in at least one of the three categories (mortality, anti-feeding, or growth inhibition)
From the text: Test compounds were applied by pipette from 10′000 ppm DMSO stock solutions into 24-well plates and mixed with agar. Lettuce seeds were placed onto the agar and the multi well plate was closed by another plate which contained also agar. After 7 days the compound was absorbed by the roots and the lettuce grew into the lid plate. The lettuce leaves were then cut off into the lid plate. Spodoptera eggs were pipetted through a plastic stencil onto a humid gel blotting paper and the lid plate was closed with it. The samples were assessed for mortality, anti-feedant effect and growth inhibition in comparison to untreated samples 6 days after infestation.

SMILES	percent control (mortality, anti-feedant effect or growth inhibition) at 200 ppm [1]	percent effect (mortality or growth inhibition) at 200 ppm [2]	mortality at 200 ppm [3]	mortality at 24 ppm [4]	mortality at 200 ppm [5]	mortality at 200 ppm [6]	percent effect (mortality or growth inhibition) at 200 ppm [7]	melting point	percent effect (mortality or growth inhibition) at 200 ppm [8]	percent effect (mortality or growth inhibition) at 200 ppm [9]	percent effect (mortality, anti-feeding or growth inhibition) at 12.5 ppm [10]
CCS(=O)(=O)c1cc2c(nc1-c1nc3cc(SC(F)(F)F)ccc3n1C)n(C)c(=O)n2C [Compound P38, 6-ethylsulfonyl-1,3-dimethyl-5-[1-methyl-5-(trifluoromethyl-sulfanyl)benzimidazol-2-yl]imidazo[4,5-b]pyridin-2-one]	≥ 80%	≥ 80%	≥ 80%	≥ 80%	≥ 80%	≥ 80%	≥ 80%	–	–	–	–
CCSc1cc2c(cc1-c1nc3cc(C(F)(F)F)cnc3n1C)n(C#N)c(=O)n2C	–	–	–	–	–	–	–	255 to 257 °C	–	–	–
CCS(=O)(=O)c1cc2c(cc1-c1nc3cc(C(F)(F)F)cnc3n1C)n(COC)c(=O)n2C [Compound P18, 5-ethylsulfonyl-1-(methoxy-methyl)-3-methyl-6-[3-methyl-6-(trifluoromethyl)imidazo[4,5-b]pyridine-2-yl]benzimidazol-2-one]	–	≥ 80%	≥ 80%	≥ 80%	–	–	–	–	≥ 80%	≥ 80%	–
CCSc1cc2c(cc1-c1nc3cc(C(F)(F)F)cnc3n1C)n(CC)c(=O)n2C [Compound P7, 1-ethyl-5-ethylsulfanyl-3-methyl-6-[3-methyl-6-(trifluoromethyl)imidazo[4,5-b]pyridin-2-yl]benzimidazol-2-one]	–	≥ 80%	–	–	–	–	–	–	≥ 80%	≥ 80%	–
CCn1c(=O)n(C)c2cc(-c3nc4cc(C(F)(F)F)cnc4n3C)c(S(=O)(=O)CC)cc21 [Compound P5, 1-ethyl-6-ethylsulfonyl-3-methyl-5-[3-methyl-6-(trifluoromethyl)imidazo[4,5-b]pyridin-2-yl]benzimidazol-2-one]	≥ 80%	≥ 80%	≥ 80%	≥ 80%	≥ 80%	≥ 80%	–	–	≥ 80%	≥ 80%	≥ 80%
CCSc1cc2c(cc1-c1nc3cc(C(F)(F)F)cnc3n1C)n(C)c(=O)n2CC	–	–	–	–	–	–	–	186 to 188 °C	–	–	–
CCS(=O)(=O)c1cc2c(cc1-c1nc3cc(SC(F)(F)F)ccc3n1C)n(C)c(=O)n2C [Compound P36, 5-ethylsulfonyl-1,3-dimethyl-6-[1-methyl-5-(trifluoromethyl-sulfanyl)benzimidazol-2-yl]benzimidazol-2-one]	–	≥ 80%	≥ 80%	≥ 80%	≥ 80%	–	≥ 80%	–	–	≥ 80%	–
CCSc1cc2c(cc1-c1nc3cc(SC(F)(F)F)ccc3o1)n(C)c(=O)n2C	–	–	–	–	–	–	–	206 to 208 °C	–	–	–
CCS(=O)(=O)c1cc2c(cc1-c1nc3cc(C(F)(F)F)cnc3n1C)n(CS(C)(=O)=O)c(=O)n2C [Compound P16, 6-ethylsulfonyl-1-methyl-3-(methylsulfonylmethyl)-5-[3-methyl-6-(trifluoromethyl)imidazo[4,5-b]pyridine-2-yl]benzimidazol-2-one]	–	–	≥ 80%	≥ 80%	–	≥ 80%	–	–	–	≥ 80%	–
CCS(=O)(=O)c1cc2c(nc1-c1nc3cc(C(F)(F)F)cnc3n1C)n(C)c(=O)n2C [Compound P22, 6-ethylsulfonyl-1,3-dimethyl-5-[3-methyl-6-(trifluoromethyl)imidazo[4,5-b]pyridine-2-yl]imidazo[4,5-b]pyridine-2-one]	≥ 80%	≥ 80%	≥ 80%	≥ 80%	≥ 80%	≥ 80%	–	–	≥ 80%	≥ 80%	–
CCn1c(=O)n(C)c2cc(-c3nc4cc(C(F)(F)F)ncc4n3C)c(S(=O)(=O)CC)cc21 [Compound P4, 1-ethyl-6-ethylsulfonyl-3-methyl-5-[3-methyl-6-(trifluoromethyl)imidazo[4,5-c]pyridin-2-yl]benzimidazol-2-one]	–	≥ 80%	≥ 80%	≥ 80%	–	≥ 80%	–	–	≥ 80%	≥ 80%	–
CCS(=O)(=O)c1cc2c(nc1-c1nc3cc(C(F)(F)F)ncc3n1C)n(C)c(=O)n2C [Compound P8, 6-ethylsulfonyl-1,3-dimethyl-5-[3-methyl-6-(trifluoromethyl)imidazo[4,5-c]pyridin-2-yl]imidazo[4,5-b]pyridin-2-one]	–	–	≥ 80%	≥ 80%	≥ 80%	≥ 80%	–	–	≥ 80%	≥ 80%	–
CCS(=O)(=O)c1cc2c(nc1-c1nc3cc(S(=O)(=O)C(F)(F)F)ccc3n1C)n(C)c(=O)n2C [Compound P39, 6-ethylsulfonyl-1,3-dimethyl-5-[1-methyl-5-(trifluoromethyl-sulfonyl)benzimidazol-2-yl]imidazo[4,5-b]pyridine-2-one]	≥ 80%	–	≥ 80%	≥ 80%	≥ 80%	–	≥ 80%	–	–	≥ 80%	–
CCS(=O)(=O)c1cc2c(nc1-c1nc3cc([S+]([O-])C(F)(F)F)ccc3o1)n(C)c(=O)n2C (stereo not shown) [Compound P45, 6-ethylsulfonyl-1,3-dimethyl-5-[5-(trifluoromethylsulfinyl)-1,3-benzoxazol-2-yl]imidazo[4,5-b]pyridin-2-one]	≥ 80%	≥ 80%	–	≥ 80%	–	≥ 80%	≥ 80%	–	–	≥ 80%	–
CCSc1cc2c(cc1-c1nc3cc(C(F)(F)F)ccc3o1)n(C)c(=O)n2C	–	–	–	–	–	–	–	205 to 207 °C	–	–	–
